Legend:
[1] = Precipitation time upon mixing the cysteine solution and the ZLC solution; type: physicochemical
[2] = pH of the mixture or of the acidified cysteine solution; conditions: 0.05 g of cysteine in 1 mL of 0.0001 M HCl

| SMILES | precipitation upon mixing ([1]; 0.05 g amino acid in 1 mL 0.0001M HCl, 4.95 g ZLC stock solution with no glycerol) | effect on precipitation time of ZLC ([1]; sulfur-containing amino acids) | pH of solution 1 [2] |
| --- | --- | --- | --- |
| CSCC[C@H](N)C(=O)O [methionine] | No precipitation occurred | no effect |  |
| N[C@@H](CS)C(=O)O [cysteine] |  |  | 5.13 |

— patent US9675823B2 (Colgate-Palmolive Company, priority 2012, dated 2017)
